In US10683297B2 (Sunshine Lake Pharma Co., Ltd., priority 2017, dated 2020):

Tests used:
[1] = Compound stability in human liver microsomes; assay type: in vitro ADME; details: for half-life at 5 μM: human liver microsomes 0.5 mg protein/mL, compound 5 μM, NADPH 1.0 mM, pH 7.4, 37° C., read-out: Human T1/2; for CLint scaled at 5 μM: liver microsomes, pH 7.4, in vivo CLint extrapolated from human liver microsome incubation
Procedure: (§1) The LC/MS/MS system used in the analysis consists of an Agilent 1200 Series vacuum degasser, binary pump, well-plate autosampler, thermostatted column compartment, the Agilent G6430 Triple Quadrupole Mass Spectrometer with an electrosprayionization (ESI) source. Quantitative analysis was carried out using MRM mode. The parameters for MRM transitions are in the Table A.
(§2) An Agilent XDB-C18, 2.1×30 mm, 3.5 μM column was used for the analysis. 5 μL of the samples were injected. Analysis condition: The mobile phase was 0.1% formic acid in water (A) and 0.1% formic acid in methanol (B). The flow rate was 0.4 mL/min. And the gradient of Mobile phase was in the Table B.
(§3) Alternatively, an Agilent 6330 series LC/MS/MS spectrometer equipped with G1312A binary pumps, a G1367A autosampler and a G1314C UV detector were used in the analysis. An ESI source was used on the LC/MS/MS spectrometer. The analysis was done in positive ion mode as appropriate and the MRM transition for each analyte was optimized using standard solution. A Capcell MP-C18 100×4.6 mm I.D., 5 uM column (Phenomenex, Torrance, Calif., USA) was used during the analysis. The mobile phase was 5 mM ammonia acetate, 0.1% MeOH in water (A): 5 mM ammonia acetate, 0.1% MeOH in acetonitrile (B) (70/30, v/v). The flow rate was 0.6 mL/min. Column was maintained at ambient temperature. 20 μL of the samples were injected.
(§4) Human or rat liver microsomes incubations were conducted in duplicate in polypropylene tubes. The typical incubation mixtures consisted of human or rat liver microsomes (0.5 mg protein/mL), compounds of interest (5 μM) and NADPH (1.0 mM) in a total volume of 200 μL potassium phosphate buffer (PBS, 100 mM, pH 7.4). Compounds were dissolved in DMSO and diluted with PBS such that the final concentration of DMSO was 0.05%. The enzymatic reactions were commenced with the addition of […] after a 3-min preincubation and incubated in a water bath open to the air at 37° C. Reactions were terminated at various time points (0, 5, 10, 15, 30, 60 min) by adding equal volume of ice-cold acetonitrile. The samples were stored at […] until LC/MS/MS assays.
(§5) The concentrations of compounds in the incubation mixtures of human or rat liver microsomes were determined by a LC/MS/MS method. The ranges of the linearity in the concentration range were determined for each tested compounds.
(§6) A parallel incubation was performed using denatured microsomes as the negative control, and reactions were terminated at various time points (0, 15, 60 min) after incubation at 37° C.
(§7) Dextromethorphan (70 μM) was selected as the positive control, and reactions were terminated at various time points (0, 5, 10, 15, 30, 60 min) after incubation at 37° C. Both positive and negative control samples were included in each assay to ensure the integrity of the microsomal incubation system.
(§8) The concentrations of compounds in human or rat liver microsome incubations were plotted as a percentage of the relevant zero time point control for each reaction. The in vivo CLint were extrapolated (ref.: Naritomi, Y.; Terashita, S.; Kimura, S.; Suzuki, A.; Kagayama, A.; and Sugiyama, Y.; Prediction of human hepatic clearance from in vivo animal experiments and in vitro metabolic studies with liver microsomes from animals and humans. Drug Metab. Dispos., 2001, 29: 1316-1324).

[2] = Compound stability in rat liver microsomes; assay type: in vitro ADME; details: for CLint scaled at 5 μM: liver microsomes, pH 7.4, in vivo CLint extrapolated from rat liver microsome incubation; for half-life at 5 μM: rat liver microsomes 0.5 mg protein/mL, compound 5 μM, NADPH 1.0 mM, pH 7.4, 37° C., read-out: Rat T1/2
Procedure: as §1, §2, §3, §4, §5, §6, §7, §8

[3] = target: T1, JAK1 (h) (Homo sapiens, UniProt P23458); experiment: JAK1 (h) kinase assay; assay type: biochemical; details: [γ-33P-ATP] 10 μM or KM values; 40 minutes at room temperature
T1 construct: purchased Millipore UK Ltd (assays performed there as a service)
T1 sequence (P23458 whole entry): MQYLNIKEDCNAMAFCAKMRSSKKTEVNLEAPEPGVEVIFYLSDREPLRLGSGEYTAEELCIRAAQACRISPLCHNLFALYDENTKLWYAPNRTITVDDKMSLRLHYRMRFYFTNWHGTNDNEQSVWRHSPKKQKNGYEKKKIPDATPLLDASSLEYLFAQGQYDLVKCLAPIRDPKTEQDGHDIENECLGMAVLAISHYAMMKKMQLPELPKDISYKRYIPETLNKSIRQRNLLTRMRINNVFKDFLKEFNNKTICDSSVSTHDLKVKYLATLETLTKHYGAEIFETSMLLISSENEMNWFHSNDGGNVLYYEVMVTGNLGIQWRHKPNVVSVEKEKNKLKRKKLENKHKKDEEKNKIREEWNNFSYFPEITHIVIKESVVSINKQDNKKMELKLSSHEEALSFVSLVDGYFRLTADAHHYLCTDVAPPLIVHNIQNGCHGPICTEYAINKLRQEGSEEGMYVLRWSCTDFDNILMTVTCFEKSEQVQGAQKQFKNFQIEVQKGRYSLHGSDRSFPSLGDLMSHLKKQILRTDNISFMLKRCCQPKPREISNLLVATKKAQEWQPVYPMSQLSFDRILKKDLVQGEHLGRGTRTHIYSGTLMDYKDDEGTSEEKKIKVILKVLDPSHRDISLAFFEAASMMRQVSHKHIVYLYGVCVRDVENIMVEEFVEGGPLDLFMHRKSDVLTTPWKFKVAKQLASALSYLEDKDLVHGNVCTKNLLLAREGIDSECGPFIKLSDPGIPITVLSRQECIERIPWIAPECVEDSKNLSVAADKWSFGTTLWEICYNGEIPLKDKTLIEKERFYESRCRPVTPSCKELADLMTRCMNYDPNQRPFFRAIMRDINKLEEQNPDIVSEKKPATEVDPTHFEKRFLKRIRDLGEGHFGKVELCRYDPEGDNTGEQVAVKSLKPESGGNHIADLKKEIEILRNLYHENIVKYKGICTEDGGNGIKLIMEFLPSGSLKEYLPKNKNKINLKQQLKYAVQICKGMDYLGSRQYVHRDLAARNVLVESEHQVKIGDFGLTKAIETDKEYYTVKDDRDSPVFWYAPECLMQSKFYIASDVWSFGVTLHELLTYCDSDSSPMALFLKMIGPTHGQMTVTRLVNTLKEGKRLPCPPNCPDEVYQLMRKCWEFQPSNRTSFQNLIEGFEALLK
Procedure: The above assay procedure can be used to determine the IC50 for inhibition and/or the inhibition constant, Ki. […] The IC50 value is estimated by preparing a 10 point curve using a ½ log dilution series (for example, a typical curve may be prepared using the following compound concentrations: 3 μM, 1 μM, 0.3 μM, 0.1 μM, 0.03 μM, 0.01 μM, 0.003 μM, 0.001 μM, 0.0003 μM and 0 μM).
JAK1 (h) is incubated with 20 mM Tris/HCl pH 7.5, 0.2 mM EDTA, 500 μM […], 10 mM MgAcetate and [γ-^33P-ATP] […] The reaction is initiated by the addition of the MgATP mix. After incubation for 40 minutes at room temperature, the reaction is stopped by the addition of 3% phosphoric acid solution. 10 μL of the reaction is then spotted onto a P30 filtermat and washed three times for 5 minutes in 75 mM phosphoric acid and once in methanol prior to drying and scintillation counting.
The kinase assays described herein were performed at Millipore UK Ltd, Dundee Technology Park, Dundee DD2 1SW, UK.

[4] = Pharmacokinetics after intravenous and oral administration in rats; assay type: in vivo; details: for Clearance (CL) after iv dosing / AUC(0-t) / half-life / Vd: dose 1 mg/kg (Ex. 9: 0.6, Ex. 18: 0.5, Ex. 50: 0.96 mg/kg), iv dosing; for AUC(0-t) / half-life / Vd / bioavailability: rat, plasma; for Vd: read-out: Vss; for bioavailability: oral (generally 5 or 10 mg/kg) versus iv dosing, read-out: F (oral bioavailability)
Procedure: as §1, §2, §3
The compounds disclosed herein are assessed in pharmacokinetic studies in mice, rats, dogs or monkeys. The compounds are administered as a water solution, 2% HPMC+1% TWEEN®80 in water solution, 5% DMSO+5% solutol in saline, 4% MC suspension or capsule. For the intravenous administration, the animals are generally given at about 0.5, 0.6, 1 or 2 mg/kg dose. For the oral (p.o.) dosing, mice and rats are generally given 5 or 10 mg/kg dose, and dogs and monkeys are generally given 10 mg/kg dose. The blood samples (0.3 mL) are drawn at 0.25, 0.5, 1.0, 2.0, 3.0, 4.0, 6.0, 8.0, 12 and 24 h time points or 0.083, 0.25, 0.5, 1.0, 2.0, 4.0, 6.0, 8.0 and 24 h time points and centrifuged at 3,000 or 4000 rpm for 2 to 10 min. The plasma solutions are collected, and stored at […] until analyzed by LC/MS/MS as described above.

SMILES	half-life at 5 μM [1]	CLint scaled at 5 μM [1]	CLint scaled at 5 μM [2]	half-life at 5 μM [2]	IC50 [3]	Clearance (CL) after iv dosing [4]	AUC(0-t) [4]	half-life [4]	Vd [4]	bioavailability [4]
N#Cc1ccc(N2CCC(Nc3nc(Nc4ccn5c(C6CC6)cnc5c4)ncc3Cl)CC2)nn1 [Example 14, 6-(4-((5-chloro-2-((3-cyclopropylimidazo[1,2-a]pyridin-7-yl)amino)pyrimidin-4-yl)amino)piperidin-1-yl)pyridazine-3-carbonitrile]	26.1 min	66.7 mL/min/kg	232 mL/min/kg	10.7 min	3 nM	–	–	–	–	–
CC(C)(F)c1nc2cc(Nc3ncc(Cl)c(NC4CCN(c5ccc(C#N)cn5)CC4)n3)ccn2n1 [Example 59, 6-(4-((5-chloro-2-((2-(2-fluoropropan-2-yl)-[1,2,4]triazolo[1,5-a]pyridin-7-yl)amino)pyrimidin-4-yl)amino)piperidin-1-yl)nicotinonitrile]	69.3 min	25.1 mL/min/kg	86.8 mL/min/kg	28.6 min	0.7 nM	–	–	–	–	–
CC(O)c1cnc2cc(Nc3ncc(Cl)c(NC4CCN(c5ccc(C#N)cn5)CC4)n3)ccn12 (stereo not drawn) [Example 43, 6-(4-((5-chloro-2-((3-(1-hydroxyethyl)imidazo[1,2-a]pyridin-7-yl)amino)pyrimidin-4-yl)amino)piperidin-1-yl)nicotinonitrile]	23.5 min	74.1 mL/min/kg	57.5 mL/min/kg	43.2 min	< 0.3 nM	–	–	–	–	–
CC(C)(O)Cn1cnc2cc(Nc3ncc(Cl)c(NC4CCN(c5ccc(C#N)cn5)CC4)n3)ccc21 [Example 64, 6-(4-((5-chloro-2-((1-(2-hydroxy-2-methylpropyl)-1H-benzo[d]imidazol-5-yl)amino)pyrimidin-4-yl)amino)piperidin-1-yl)nicotinonitrile]	40.3 min	43.2 mL/min/kg	249 mL/min/kg	10 min	0.5 nM	–	–	–	–	–
Cc1cnc2cc(Nc3ncc(Cl)c(NC4CCN(c5ccc(C#N)cn5)CC4)n3)cnn12 [Example 21, 6-(4-((5-chloro-2-((3-methylimidazo[1,2-b]pyridazin-7-yl)amino)pyrimidin-4-yl)amino)piperidin-1-yl)nicotinonitrile]	–	–	–	–	< 0.3 nM	11.8 mL/min/kg	1420 ng·h/mL	43.2 min	0.84 L/kg	37%
Cc1nnc2cc(Nc3ncc(Cl)c(NC4CCN(c5ccc(C#N)cn5)CC4)n3)cnn12 [Example 25, 6-(4-((5-chloro-2-((3-methyl-[1,2,4]triazolo[4,3-b]pyridazin-7-yl)amino)pyrimidin-4-yl)amino)piperidin-1-yl)nicotinonitrile]	61 min	28.5 mL/min/kg	54.9 mL/min/kg	45.2 min	3 nM	–	–	–	–	–
Cc1cnc2ccc(Nc3ncc(Cl)c(NC4CCN(c5ccc(C#N)nn5)CC4)n3)cn12 [Example 13, 6-(4-((5-chloro-2-((3-methylimidazo[1,2-a]pyridin-6-yl)amino)pyrimidin-4-yl)amino)piperidin-1-yl)pyridazine-3-carbonitrile]	21.8 min	79.8 mL/min/kg	23.3 mL/min/kg	107 min	0.5 nM	–	–	–	–	–

Second part, the compound after the results:

half-life at 5 μM [1]	CLint scaled at 5 μM [1]	CLint scaled at 5 μM [2]	half-life at 5 μM [2]	IC50 [3]	Clearance (CL) after iv dosing [4]	AUC(0-t) [4]	half-life [4]	Vd [4]	bioavailability [4]	SMILES
25.6 min	67.9 mL/min/kg	68.5 mL/min/kg	36.2 min	0.3 nM	–	–	–	–	–	CC(C)(O)c1cnc2cc(Nc3ncc(Cl)c(NC4CCN(c5ccc(C#N)nn5)CC4)n3)ccn12 [Example 66, 6-(4-((5-chloro-2-((3-(2-hydroxypropan-2-yl]imidazo[1,2-a]pyridin-7-yl)amino)pyrimidin-4-yl)amino)piperidin-1-yl)pyridazine-3-carbonitrile]
41.5 min	41.9 mL/min/kg	164 mL/min/kg	15.1 min	0.5 nM	14 mL/min/kg	1220 ng·h/mL	33.6 min	0.56 L/kg	56.1%	N#Cc1ccc(N2CCC(Nc3nc(Nc4ccn5cc(C(F)F)nc5c4)ncc3Cl)CC2)nn1 [Example 28, 6-(4-((5-chloro-2-((2-(difluoromethyl)imidazo[1,2-a]pyridin-7-yl)amino)pyrimidin-4-yl)amino)piperidin-1-yl)pyridazine-3-carbonitrile]
153 min	11.3 mL/min/kg	30 mL/min/kg	82.7 min	0.5 nM	–	–	–	–	–	Cc1nnc2cc(Nc3ncc(Cl)c(NC4CCN(c5ccc(C#N)nn5)CC4)n3)ccn12 [Example 20, 6-(4-((5-chloro-2-((3-methyl-[1,2,4]triazolo[4,3-a]pyridin-7-yl)amino)pyrimidin-4-yl)amino)piperidin-1-yl)pyridazine-3-carbonitrile]
18.9 min	91.8 mL/min/kg	438 mL/min/kg	5.67 min	0.9 nM	–	–	–	–	–	CC(C)(O)c1cn2ccc(Nc3ncc(Cl)c(NC4CCN(c5ccc(C#N)nn5)CC4)n3)cc2n1 [Example 71]
40.7 min	42.7 mL/min/kg	131 mL/min/kg	19 min	0.6 nM	–	–	–	–	–	CC(C)(O)Cc1cnc2cc(Nc3ncc(Cl)c(NC4CCN(c5ccc(C#N)nn5)CC4)n3)ccn12 [Example 80, 6-(4-((5-chloro-2-((3-(2-hydroxy-2-methylpropyl)imidazo[1,2-a]pyridin-7-yl)amino)pyrimidin-4-yl)amino)piperidin-1-yl)pyridazine-3-carbonitrile]
